Columns and labels:
[1] = target: T1, wt human NUAK1, full length (Homo sapiens, UniProt O60285); experiment: TR-FRET LanthaScreen Eu Kinase Binding Assay, NUAK1; settings: 5 nM Kinase Tracer 236; read-out: IC50, inhibitory activity toward NUAK1
T1 construct: 8 nM wt human NUAK1, full length (ThermoFisher/USA); purchased ThermoFisher/USA
T1 sequence (O60285 1-661): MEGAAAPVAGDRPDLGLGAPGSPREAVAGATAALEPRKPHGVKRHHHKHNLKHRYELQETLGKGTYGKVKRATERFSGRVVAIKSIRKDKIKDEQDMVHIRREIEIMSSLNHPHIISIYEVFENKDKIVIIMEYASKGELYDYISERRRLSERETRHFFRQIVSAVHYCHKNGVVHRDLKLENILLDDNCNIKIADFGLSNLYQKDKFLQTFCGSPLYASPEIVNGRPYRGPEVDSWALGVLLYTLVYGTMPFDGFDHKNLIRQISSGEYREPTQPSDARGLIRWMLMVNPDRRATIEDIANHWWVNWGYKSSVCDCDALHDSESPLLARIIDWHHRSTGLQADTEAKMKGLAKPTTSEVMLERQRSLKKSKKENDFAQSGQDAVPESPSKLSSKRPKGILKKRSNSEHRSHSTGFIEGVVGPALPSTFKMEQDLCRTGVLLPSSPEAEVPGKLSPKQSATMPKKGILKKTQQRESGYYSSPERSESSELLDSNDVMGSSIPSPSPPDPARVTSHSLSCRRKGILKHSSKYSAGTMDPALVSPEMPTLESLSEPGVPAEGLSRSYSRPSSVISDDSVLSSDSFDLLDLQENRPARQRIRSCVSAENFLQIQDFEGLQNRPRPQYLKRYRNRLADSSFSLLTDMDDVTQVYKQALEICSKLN
Procedure, shortened: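 TR-FRET tracer-displacement binding with 8 nM full-length wild-type human NUAK1, 2 nM Eu-anti-His antibody and 5 nM Kinase Tracer 236 in 1× Kinase Buffer A (final). Compound, kinase/antibody and tracer incubated 1 h at room temperature; emission ratios analysed per kit protocol.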

[2] = target: T2, wt human TYK2, catalytic site (Homo sapiens, UniProt P29597); experiment: HTRF KinEASE assay, TYK2; type: biochemical; settings: 1 μM ATP; read-out: IC50, inhibitory activity toward TYK2
T2 construct: 2 nM wt human TYK2, catalytic site (SignalChem/CAN); purchased SignalChem/CAN
T2 sequence (P29597 897-1176 limits assumed): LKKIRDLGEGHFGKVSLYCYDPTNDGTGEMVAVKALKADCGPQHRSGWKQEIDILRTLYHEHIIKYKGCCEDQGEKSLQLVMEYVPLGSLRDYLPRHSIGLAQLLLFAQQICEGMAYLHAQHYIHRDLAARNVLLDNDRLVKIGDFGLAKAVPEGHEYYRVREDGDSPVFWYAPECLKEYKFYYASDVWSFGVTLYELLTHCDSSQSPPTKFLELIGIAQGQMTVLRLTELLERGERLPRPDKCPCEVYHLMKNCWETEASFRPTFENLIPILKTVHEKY
Procedure, shortened: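 2 nM wt human TYK2 catalytic domain with 1 μM biotinylated TK substrate and 1 μM ATP in 1× kinase buffer was incubated ≥30 min at room temperature. Antibody and streptavidin-XL665 were added, and HTRF emission ratios were read after 60 min.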

IC50 [1]	IC50 [2]	SMILES
100 to 1000 nM	100 to 1000 nM	Cc1ccc2c(c1)-c1n[nH]cc1NC(c1c(F)ccc(C(F)(F)F)c1F)=N2 [Compound 217, 5-(2,6-difluoro-3-(trifluoromethyl)phenyl)-9-methyl-2,4-dihydrobenzo[d]pyrazolo[3,4-f][1,3]diazepine]
10 to 100 nM	10 to 100 nM	Nc1ncc2c(n1)N=C(c1c(F)cccc1F)Nc1c[nH]nc1-2 [Compound 218, 5-(2,6-difluorophenyl)-2,4-dihydropyrazolo[4,3-d]pyrimido[5,4-f][1,3]diazepin-8-amine]
100 to 1000 nM	10 to 100 nM	CN1CCN(c2ncc3c(n2)N=C(c2c(F)cccc2F)Nc2c[nH]nc2-3)CC1 [Compound 219]
100 to 1000 nM	10 to 100 nM	Fc1cc2c(cc1OC1CCOCC1)N=C(c1c(F)cccc1F)Nc1c[nH]nc1-2 [Compound 220, 5-(2,6-difluorophenyl)-9-fluoro-8-((tetrahydro-2H-pyran-4-yl)oxy)-2,4-dihydrobenzo[d]pyrazolo[3,4-f][1,3]diazepine]
100 to 1000 nM	< 10 nM	Fc1cc2c(cc1OC1CCOCC1)N=C(c1c(F)cccc1Cl)Nc1c[nH]nc1-2 [Compound 221, 5-(2-chloro-6-fluorophenyl)-9-fluoro-8-((tetrahydro-2H-pyran-4-yl)oxy)-2,4-dihydrobenzo[d]pyrazolo[3,4-f][1,3]diazepine]
100 to 1000 nM	10 to 100 nM	Fc1cc2c(cc1OC1CCOCC1)N=C(c1c(F)cccc1C(F)(F)F)Nc1c[nH]nc1-2 [Compound 223, 9-fluoro-5-(2-fluoro-6-(trifluoromethyl)phenyl)-8-((tetrahydro-2H-pyran-4-yl)oxy)-2,4-dihydrobenzo[d]pyrazolo[3,4-f][1,3]diazepine]
10 to 100 nM	10 to 100 nM	Fc1cc2c(cc1-c1cccnn1)N=C(c1c(F)cccc1F)Nc1c[nH]nc1-2 [Compound 225, 5-(2,6-difluorophenyl)-9-fluoro-8-(pyridazin-3-yl)-2,4-dihydrobenzo[d]pyrazolo[3,4-f][1,3]diazepine]
< 10 nM	< 10 nM	Fc1cc2c(cc1-c1ccnnc1)N=C(c1c(F)cccc1F)Nc1c[nH]nc1-2 [Compound 226, 5-(2,6-difluorophenyl)-9-fluoro-8-(pyridazin-4-yl)-2,4-dihydrobenzo[d]pyrazolo[3,4-f][1,3]diazepine]
100 to 1000 nM	10 to 100 nM	Fc1cc2c(cc1-c1cccnn1)N=C(c1c(Cl)cccc1Cl)Nc1c[nH]nc1-2 [Compound 227, 5-(2,6-dichlorophenyl)-9-fluoro-8-(pyridazin-3-yl)-2,4-dihydrobenzo[d]pyrazolo[3,4-f][1,3]diazepine]
10 to 100 nM	< 10 nM	Fc1cc2c(cc1-c1cccnn1)N=C(c1c(F)cccc1Cl)Nc1c[nH]nc1-2 [Compound 228, 5-(2-chloro-6-fluorophenyl)-9-fluoro-8-(pyridazin-3-yl)-2,4-dihydrobenzo[d]pyrazolo[3,4-f][1,3]diazepine]
100 to 1000 nM	< 10 nM	Fc1cc2c(cc1-c1ccnnc1)N=C(c1c(Cl)cccc1Cl)Nc1c[nH]nc1-2 [Compound 229, 5-(2,6-dichlorophenyl)-9-fluoro-8-(pyridazin-4-yl)-2,4-dihydrobenzo[d]pyrazolo[3,4-f][1,3]diazepine]

More lines, now with the values behind:

SMILES	IC50 [1]	IC50 [2]
Cc1ccc2c(c1)-c1[nH]ncc1NC(c1c(Cl)ccc(Br)c1F)=N2 [Compound 184, 5-(3-bromo-6-chloro-2-fluorophenyl)-9-methyl-1,4-dihydrobenzo [d]pyrazolo[3,4-f][1,3]diazepine]	10 to 100 nM	100 to 1000 nM
Cc1ccc2c(c1)-c1[nH]ncc1NC(c1c(Cl)ccc(F)c1F)=N2 [Compound 186, 5-(6-chloro-2,3-difluorophenyl)-9-methyl-1,4-dihydrobenzo[d]pyrazolo[3,4-f][1,3]diazepine]	10 to 100 nM	100 to 1000 nM
Fc1cccc(Cl)c1C1=Nc2cnc(Cl)cc2-c2n[nH]cc2N1 [Compound 190, 9-chloro-5-(2-chloro-6-fluorophenyl)-2,4-dihydropyrazolo[4,3-d]pyrido[4,3-f][1,3]diazepine]	10 to 100 nM	10 to 100 nM
Fc1cc(F)c(C2=Nc3ccc(Cl)cc3-c3n[nH]cc3N2)c(F)c1 [Compound 194, 9-chloro-5-(2,4,6-trifluorophenyl)-2,4-dihydrobenzo[d]pyrazolo[3,4-f][1,3]diazepine]	10 to 100 nM	100 to 1000 nM
Fc1cccc(F)c1C1=Nc2cnc(OC(F)F)cc2-c2n[nH]cc2N1 [Compound 197, 9-(difluoromethoxy)-5-(2,6-difluorophenyl)-2,4-dihydropyrazolo[4,3-d]pyrido[4,3-f][1,3]diazepine]	10 to 100 nM	10 to 100 nM
O=C(O)c1cc2c(cc1Cl)-c1[nH]ncc1N=C(c1c(F)cccc1F)N2 [Compound 198, 9-chloro-5-(2,6-difluorophenyl)-1,6-dihydrobenzo[d]pyrazolo[3,4-f][1,3]diazepine-8-carboxylic acid]	100 to 1000 nM	10 to 100 nM
CCNC(=O)c1cc2c(cc1Cl)-c1n[nH]cc1N=C(c1c(F)cccc1F)N2 [Compound 200, 9-chloro-5-(2,6-difluorophenyl)-N-ethyl-2,6-dihydrobenzo[d]pyrazolo[3,4-f][1,3]diazepine-8-carboxamide]	10 to 100 nM	10 to 100 nM
CC(C)(C)NC(=O)c1cc2c(cc1Cl)-c1n[nH]cc1N=C(c1c(F)cccc1F)N2 [Compound 201, N-(tert-butyl)-9-chloro-5-(2,6-difluorophenyl)-2,6-dihydrobenzo[d]pyrazolo[3,4-f][1,3]diazepine-8-carboxamide]	100 to 1000 nM	10 to 100 nM
O=C(NCC(F)(F)F)c1cc2c(cc1Cl)-c1n[nH]cc1N=C(c1c(F)cccc1F)N2 [Compound 202, 9-chloro-5-(2,6-difluorophenyl)-N-(2,2,2-trifluoroethyl)-2,6-dihydrobenzo[d]pyrazolo[3,4-f][1,3]diazepine-8-carboxamide]	10 to 100 nM	10 to 100 nM
Fc1cc(F)c(C2=Nc3cn[nH]c3-c3cc(F)ccc3N2)c(F)c1 [Compound 203, 9-fluoro-5-(2,4,6-trifluorophenyl)-1,6-dihydrobenzo[d]pyrazolo[3,4-f][1,3]diazepine]	10 to 100 nM	100 to 1000 nM
Fc1cccc(F)c1C1=Nc2cn[nH]c2-c2cc3c(cc2N1)OCO3 [Compound 210, 5-(2,6-difluorophenyl)-1,6-dihydro-[1,3]dioxolo[4′,5′:4,5]benzo[1,2-d]pyrazolo[3,4-f][1,3]diazepine]	10 to 100 nM	10 to 100 nM
CCNC(=O)c1cc2c(cc1F)-c1n[nH]cc1N=C(c1c(F)cccc1F)N2 [Compound 211, 5-(2,6-difluorophenyl)-N-ethyl-9-fluoro-2,6-dihydrobenzo[d]pyrazolo[3,4-f][1,3]diazepine-8-carboxamide]	10 to 100 nM	10 to 100 nM
Fc1ccc2c(c1)-c1n[nH]cc1NC(c1c(F)cc(OC(F)(F)F)cc1F)=N2 [Compound 214, 5-(2,6-difluoro-4-(trifluoromethoxy)phenyl)-9-fluoro-2,4-dihydrobenzo[d]pyrazolo[3,4-f][1,3]diazepine]	100 to 1000 nM	100 to 1000 nM
Fc1ccc2c(c1)-c1[nH]ncc1N=C(c1c(F)cc(OC(F)F)cc1F)N2 [Compound 215, 5-(4-(difluoromethoxy)-2,6-difluorophenyl)-9-fluoro-1,6-dihydrobenzo[d]pyrazolo[3,4-f][1,3]diazepine]	10 to 100 nM	100 to 1000 nM
O=C(NCCF)c1cc2c(cc1F)-c1n[nH]cc1N=C(c1c(F)cccc1F)N2 [Compound 216, 5-(2,6-difluorophenyl)-9-fluoro-N-(2-fluoroethyl)-2,6-dihydrobenzo[d]pyrazolo[3,4-f][1,3]diazepine-8-carboxamide]	10 to 100 nM	10 to 100 nM
Fc1cc2c(cc1OC1CCOCC1)N=C(c1c(Cl)cccc1Cl)Nc1c[nH]nc1-2 [Compound 222, 5-(2,6-dichlorophenyl)-9-fluoro-8-((tetrahydro-2H-pyran-4-yl)oxy)-2,4-dihydrobenzo[d]pyrazolo[3,4-f][1,3]diazepine]	100 to 1000 nM	< 10 nM

— patent publication US20220380374A1, “1,4-DIHYDROBENZO[D]PYRAZOLO[3,4-F][1,3]DIAZEPINE DERIVATIVES AND RELATED COMPOUNDS AS LRRK2, NUAK1 AND/OR TYK2 KINASE MODULATORS FOR THE TREATMENT OF E.G. AUTOIMMUNE DISEASE” (Origenis GMBH, priority 2019, published 2022)
